# Biological target: Mu-type opioid receptor (Homo sapiens, UniProt P35372)
# Assay: FLIPR Calcium Assay
# Experimental: One day before the assay, CORNING black with clear flat bottom 96-well assay plates were coated with a 0.1 mg/mL Poly-L-Lysine solution. CHO-K1/MOR/Gα15 cells were suspended in the F12 medium and plated at a density of 8×10^4 cells/well in 200 μL medium. Cells were incubated in a humidified atmosphere of 10% CO2 at 37° C. overnight so as to reach an 80-90% confluent cell monolayer before assay. At the day of assay, 150 μL medium/well was removed from plate. To each well, 50 μL FLIPR calcium assay reagent dissolved in 1× assay buffer (HBSS: KCl 5 mM, KH2PO4 0.3 mM, NaCl 138 mM, NaHCO3 4 mM, Na2HPO4 0.3 mM, d-glucose 5.6 mM, with additional 20 mM HEPES and 13 mM CaCl2, pH 7.4), with 2.5 mM probenecid was added and the plate was incubated at 37° C. for 1 h. Compounds and other reagents were dissolved in the assay buffer. Using a FlexStationIII (Molecular Devices Corp.), the [Ca2+]i fluorescence increases after robotic injections of compounds or other reagents were monitored every 1.52 s interval with excitation wavelength at 485 nm and with emission wavelength at 525 nm. The [Ca2+]i fluorescence was measured up to 90 s after agonist injection.
# Sequence of Mu-type opioid receptor (P35372 whole entry): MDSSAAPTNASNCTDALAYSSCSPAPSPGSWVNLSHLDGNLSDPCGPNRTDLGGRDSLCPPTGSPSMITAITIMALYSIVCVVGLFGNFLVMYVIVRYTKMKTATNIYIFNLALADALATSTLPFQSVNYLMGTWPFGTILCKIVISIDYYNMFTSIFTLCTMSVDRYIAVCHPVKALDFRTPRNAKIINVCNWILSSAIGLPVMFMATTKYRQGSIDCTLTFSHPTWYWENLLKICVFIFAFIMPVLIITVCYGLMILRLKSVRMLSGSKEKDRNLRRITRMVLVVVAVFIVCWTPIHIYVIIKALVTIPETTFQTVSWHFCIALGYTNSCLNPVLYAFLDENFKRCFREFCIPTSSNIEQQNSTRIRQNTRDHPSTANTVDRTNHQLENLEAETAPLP
row,SMILES,EC50 [µM]
1,"COc1ccccc1N1C(=O)CSC1c1cccc(F)c1 (stereo not drawn) [US10544113, No. 1]",12.4
2,"COc1ccccc1N1C(=O)CSC1c1ccc(F)cc1 (stereo not drawn) [US10544113, No. 2]",19
3,"COc1ccc(F)cc1N1C(=O)CSC1c1ccc(F)c(F)c1 (stereo not drawn) [US10544113, No. 4]",3.3
4,"COc1ccc(F)cc1N1C(=O)CSC1c1cccc(F)c1 (stereo not drawn) [US10544113, No. 5]",5.2
5,"COc1ccc(F)cc1N1C(=O)CSC1c1ccc(F)cc1 (stereo not drawn) [US10544113, No. 6]",3.9
6,"COc1cc(N2C(=O)CSC2c2ccc(F)cc2)cc(OC)c1OC (stereo not drawn) [US10544113, No. 16]",8.3
7,"Cc1cccc(F)c1N1C(=O)CSC1c1ccc(F)cc1 (stereo not drawn) [US10544113, No. 108]",3.3
8,"Cc1cc(C(=O)OCCCc2ccccc2)ccc1N1C(=O)CSC1c1ccc(F)cc1 (stereo not drawn) [US10544113, No. 253]",11.2

# The next lines start with the values.
row,EC50 [µM],SMILES
1,7.1,"COCCOCCOC(=O)c1ccc(N2C(=O)CSC2c2ccc(F)cc2)c(C)c1 (stereo not drawn) [US10544113, No. 280]"
2,2.9,"Cc1cc(C(=O)OCCN2CCCC2)ccc1N1C(=O)CSC1c1ccc(F)cc1 (stereo not drawn) [US10544113, No. 294]"
3,3.7,"COCCCNC(=O)c1ccc(N2C(=O)CSC2c2ccc(F)cc2)c(C)c1 (stereo not drawn) [US10544113, No. 343]"
4,7,"Cc1cc(C(=O)NCCN2CCOCC2)ccc1N1C(=O)CSC1c1ccc(F)cc1 (stereo not drawn) [US10544113, No. 344]"
5,6.6,"Cc1cc(C(=O)NCCc2ccccc2Cl)ccc1N1C(=O)CSC1c1ccc(F)cc1 (stereo not drawn) [US10544113, No. 384]"
